Data on one compound can be found in patent US9750701B2, “Pharmaceutical dosage form” (GRÜNENTHAL GMBH, priority 2008, dated 2017).

This data set can be described thus: pharmacokinetic data of tapentadol formulation (blood plasma concentrations). In kind it is in vivo, patients/test subjects. Conditions: human, formulation containing tapentadol; for AUC(0-inf): read-out: AUC0-∞ (total area under the curve); for half-life: read-out: t1/2 (half-life) (converted). The text has this: For the purposes of the description, the pharmacokinetic parameters, which may be determined from the blood plasma concentrations of the pharmacologically active compound (A), are defined as follows: […]
The above parameters are in each case stated as mean values of the individual values for all investigated patients/test subjects.
In a particularly preferred embodiment the pharmacologically active compound (A) is tapentadol or a physiologically acceptable salt thereof and the pharmaceutical dosage form according to the invention is bioequivalent to a formulation that contains tapentadol or a physiologically acceptable salt thereof in a dosage of 200 mg and 250 mg, respectively, and is characterized by the following pharmacokinetic data: […]

Molecules are shown by their SMILES. Where two headings read alike, the source gives them in different places.

Broadly, the Cmax is the peak of the concentration-time curve. One may read the Tmax as the time from dosing to the highest level. `CC[C@@H](c1cccc(O)c1)[C@@H](C)CN(C)C` [tapentadol]: under “dosage 200 mg”, the Cmax turned out to be 62.5 ng/mL, the Tmax is 5 h, the AUC(0-inf) is 825 ng·h/mL and the half-life was 5.2 h. Where the note is “dosage 250 mg”, the Cmax came to 89.3 ng/mL, the Tmax was found to be 5 h, the AUC(0-inf) is 1100 ng·h/mL and the half-life is 5.4 h.
